SMILES strings stand for the structures. pKi: −log10 of the molar value.

In the assay the target is T1, human ALK5 (recombinant TGF β1 N-term GST-tagged, 80-end) (Homo sapiens, UniProt P36897).
T1 construct: human ALK5 (recombinant TGF β1 N-term GST-tagged, 80-end); GST (N); purchased
T1 sequence (P36897 80-503 limits assumed): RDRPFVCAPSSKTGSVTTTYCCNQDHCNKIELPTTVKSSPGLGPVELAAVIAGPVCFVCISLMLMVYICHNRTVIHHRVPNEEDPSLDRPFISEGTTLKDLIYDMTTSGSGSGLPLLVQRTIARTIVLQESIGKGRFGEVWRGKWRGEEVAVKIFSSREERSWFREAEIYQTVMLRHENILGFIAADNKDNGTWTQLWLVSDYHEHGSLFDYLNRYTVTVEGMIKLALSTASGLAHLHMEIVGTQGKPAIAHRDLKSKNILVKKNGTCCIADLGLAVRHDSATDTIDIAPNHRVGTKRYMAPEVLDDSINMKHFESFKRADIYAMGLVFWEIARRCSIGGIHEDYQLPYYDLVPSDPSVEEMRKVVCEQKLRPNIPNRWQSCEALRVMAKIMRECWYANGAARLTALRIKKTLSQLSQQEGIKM
Put plainly: ADP-GLO kinase assay, biochemical ALK5 assay. Particulars: pIC50 converted to pKi using the Cheng-Prusoff equation, ATP at Km, or high ATP (30-fold Km) for very potent compounds, 25° C. Here is the method:
The enzymatic activity of compounds of the present invention was monitored measuring the formation of ADP using the ADP-GLO Kinases assay. Following the incubation of the purified enzyme, a substrate and ATP, the produced ADP was converted into ATP, which in turn was converted into light by Ultra-Glo Luciferase. The luminescent signal positively correlated with ADP amount and kinase activity. Briefly, the kinase reaction was performed by incubating 2.6 nM of the purified, commercially available human ALK5 (recombinant TGF β1 N-term GST-tagged, 80-end), a final concentration of TGFβ1 peptide 94.5 μM (Promega, T36-58) and ultra-pure ATP (Promega V915B). The ATP concentration was set at the Km value (concentration of substrate which permits the enzyme to achieve half maximal velocity (Vmax)) of ALK5 (0.5 μM). Compound and ALK5 kinase were mixed and incubated for 15 mins. Reactions were initiated by addition of ATP at a final concentration in the assay of […]. After an incubation of 120 min, the reaction was stopped, and ADP production detected with ADP-Glo kit according to manufacturer's indications. To overcome the assay wall limit for very potent compounds the assay protocol was changed by using a high ATP concentration (30-fold Km). Compounds and ALK5 kinase were mixed for 15 min and the reaction initiated by addition of TGFβ1 peptide and ATP at a final concentration in the assay of 15 μM. After an incubation of 60 min, the kinase reaction was stopped, and ADP production detected with ADP-Glo kit according to manufacturer's indications.
All reaction and incubation steps were performed at 25° C. and the assays were performed in 384-well format and validated using a selection of reference compounds tested in 11-point concentration-response curve.
Results were expressed as pIC50 (negative logarithm of IC50) and subsequently converted to pKi (negative logarithm of […]) using the Cheng-Prusoff equation. The higher the value of pKi, the greater the inhibition of ALK5 activity.
Background: ADP-Glo turns the ADP formed in a reaction into a luminescent signal.
Turning to `CN1CCN(CCC(=O)Nc2cc(Nc3cc(-c4cc(Cl)ccc4F)nnc3C3CCCS3)ccn2)CC1` (stereo not drawn) [Example 22, N-(4-((6-(5-chloro-2-fluorophenyl)-3-(tetrahydrothiophen-2-yl)pyridazin-4-yl)amino)pyridin-2-yl)-3-(4-methylpiperazin-1-yl)propanamide], the negative logarithm of the Ki (pKi) is 9.10 to 9.90. With `CN1CCN(CCC(=O)Nc2cc(Nc3cc(-c4cc(Cl)ccc4F)nnc3C3CC(=O)N(C)C3)ccn2)CC1` (stereo not drawn) [Example 23, N-(4-((6-(5-chloro-2-fluorophenyl)-3-(1-methyl-5-oxopyrrolidin-3-yl)pyridazin-4-yl)amino)pyridin-2-yl)-3-(4-methylpiperazin-1-yl)propanamide] the figure was 8.50 to 9.00; with `Fc1ccc(Cl)cc1-c1cc(Nc2ccc3ncsc3c2)c(C2=CCNCC2)nn1` [Example C1, N-[6-(5-chloro-2-fluorophenyl)-3-(1,2,3,6-tetrahydropyridin-4-yl)pyridazin-4-yl]-1,3-benzothiazol-6-amine, reference compound], 7.22.

As a reminder, the pKi is the Ki on a negative log10 scale, so that one unit is a factor of ten.

The record behind these values is patent publication US20250100997A1, “PYRIDAZINYL AMINO DERIVATIVES AS ALK5 INHIBITORS” (CHIESI FARMACEUTICI S.P.A., priority 2022, published 2025).
